Test results as given in patent publication US12600714B2, “Substituted pyrazinecarboxamide compounds for treating diseases related to EGFR mutation” (WIGEN BIOMEDICINE TECHNOLOGY (SHANGHAI) CO., LTD., priority 2020, dated 2026).

Columns and labels:
[1] = molecular target: Ba/F3 (EGFR^del19/T790M/C797S) triple-mutant cells (Homo sapiens, UniProt P00533, T790M/C797S, cells depend on it, form not given); assay: Antiproliferative activity against Ba/F3 (EGFR del19/T790M/C797S) triple-mutant cells, Cell Titer Glow; type: cell-based; details: three days after addition of compounds; read-out: Antiproliferative activity BaF3(EGFR^del19/T790M/C797S) IC50
Method in brief: (§1)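 Cells seeded (3000 Ba/F3 del19/T790M/C797S or 2000 A431 per well), compounds added after one day, serially diluted up to 500 nM for Ba/F3 and up to 10 μM for A431. Growth read by Cell Titer Glow after 3 days; IC50 from % growth inhibition.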

[2] = system: PC9 cells with EGFR Del19/T790M/C797S overexpression; assay: In vivo pharmacodynamic study, mouse PC9 (EGFR Del19/T790M/C797S) subcutaneous xenograft tumor model; set-up: species or system BALB/c nude mice; details: intragastric once daily, day 28, PC9 (EGFR Del19/T790M/C797S) xenograft
Description: In Vivo Pharmacodynamic Study—Mouse PC9(EGFR Del19/T790M/C797S) Subcutaneous Xenograft Tumor Model
(§2) BALB/c nude mice were grafted subcutaneously on the left dorsum with 5×10^6 PC9 cells with EGFR Del19/T790M/C797S overexpression. After the tumor grew to 100-150 mm^3, the mice were randomly divided into the following groups for intragastric administration once daily: group 1: vehicle control; group 2: compound 511 (60 mg/kg); and group 3: compound 511 (80 mg/kg). The tumor volume was measured twice weekly and at the end of treatment. Tumor growth inhibition of the compound was calculated according to the following equation: tumor growth inhibition (TGI)=1−(tumor volume on day 28 in treatment group−tumor volume on day 1 in treatment group)/(tumor volume on day 28 in vehicle control group−tumor volume on day 1 in treatment group).

[3] = system: H1975 cells carrying EGFR T790M mutation; assay: In vivo pharmacodynamic study, mouse H1975 subcutaneous xenograft tumor model; set-up: species or system BALB/c nude mice; details: intragastric once daily, day 28, H1975 xenograft
Description: In Vivo Pharmacodynamic Study—Mouse H1975 Subcutaneous Xenograft Tumor Model
as §2, with “5×10^6 H1975” for “5×10^6 PC9”, “cells carrying” for “cells with”, “EGFR T790M mutation.” for “EGFR Del19/T790M/C797S overexpression.”

[4] = system: EGFR (del19/T790M/C797S); assay: HTRF inhibitory activity assay against EGFR (del19/T790M/C797S) enzyme; type: biochemical
Method in brief: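 Wild-type or mutant EGFR preincubated with serially diluted compound 10 min at 28 °C, then reacted 40 min at room temperature with biotinylated TK substrate and ATP. Phosphorylation detected by HTRF (Eu-cryptate anti-TK antibody, streptavidin-XL665, 60 min), 665/615 nm ratio; % inhibition and IC50 vs control.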

[5] = molecular target: EGFR (WT) (Homo sapiens, UniProt P00533); assay: HTRF inhibitory activity assay against EGFR (WT) enzyme; type: biochemical
Description: (§3) Inhibitory Activity Assay of the Compounds Disclosed Herein Against EGFR (del19/T790M/C797S), EGFR (L858R/T790M/C797S) or EGFR (WT) Enzymes
(§4) The inhibitory effects of the compounds against EGFR (del19/T790M/C797S), EGFR (L858R/T790M/C797S) or EGFR (WT) enzyme activity was determined by using HTRF. The procedures are as follows:
(§5) The WT or mutant EGFR proteins were incubated with a serially diluted compounds at 28° C. for 10 min followed by addition of biotin-labeled general tyrosine kinase (TK) substrate and ATP. The mixture was incubated at room temperature for 40 min for reaction. After the termination of the reaction, an Eu3+-Cryptate-labeled antibody against TK and streptavidin-XL665 were added and the mixture was incubated at room temperature for 60 min. The luminescences at 615 nm and 665 nm were detected and the ratio of 665/615 was calculated to quantify the level of TK substrate phosphorylation. Inhibition % and IC50 of the compounds were calculated relative to the control group.

[6] = system: A431 (EGFR WT) cells; assay: Antiproliferative activity against A431 (EGFR WT) cells, Cell Titer Glow; type: cell-based; details: Homo sapiens, A-431, 72 h; three days after addition of compounds; read-out: Antiproliferative activity A431 wild-type (WT) IC50
Method in brief: as §1

[7] = molecular target: EGFR (L858R/T790M/C797S) (Homo sapiens, UniProt P00533, C797S/L858R/T790M); assay: HTRF inhibitory activity assay against EGFR (L858R/T790M/C797S) enzyme; type: biochemical; details: read-out: EGFR (L858R/T790M/C797S) inhibition (%) (0.3 nM compound)
Description: as §3, §4, §5

EGFR (WT), sequence (P00533 25-1210): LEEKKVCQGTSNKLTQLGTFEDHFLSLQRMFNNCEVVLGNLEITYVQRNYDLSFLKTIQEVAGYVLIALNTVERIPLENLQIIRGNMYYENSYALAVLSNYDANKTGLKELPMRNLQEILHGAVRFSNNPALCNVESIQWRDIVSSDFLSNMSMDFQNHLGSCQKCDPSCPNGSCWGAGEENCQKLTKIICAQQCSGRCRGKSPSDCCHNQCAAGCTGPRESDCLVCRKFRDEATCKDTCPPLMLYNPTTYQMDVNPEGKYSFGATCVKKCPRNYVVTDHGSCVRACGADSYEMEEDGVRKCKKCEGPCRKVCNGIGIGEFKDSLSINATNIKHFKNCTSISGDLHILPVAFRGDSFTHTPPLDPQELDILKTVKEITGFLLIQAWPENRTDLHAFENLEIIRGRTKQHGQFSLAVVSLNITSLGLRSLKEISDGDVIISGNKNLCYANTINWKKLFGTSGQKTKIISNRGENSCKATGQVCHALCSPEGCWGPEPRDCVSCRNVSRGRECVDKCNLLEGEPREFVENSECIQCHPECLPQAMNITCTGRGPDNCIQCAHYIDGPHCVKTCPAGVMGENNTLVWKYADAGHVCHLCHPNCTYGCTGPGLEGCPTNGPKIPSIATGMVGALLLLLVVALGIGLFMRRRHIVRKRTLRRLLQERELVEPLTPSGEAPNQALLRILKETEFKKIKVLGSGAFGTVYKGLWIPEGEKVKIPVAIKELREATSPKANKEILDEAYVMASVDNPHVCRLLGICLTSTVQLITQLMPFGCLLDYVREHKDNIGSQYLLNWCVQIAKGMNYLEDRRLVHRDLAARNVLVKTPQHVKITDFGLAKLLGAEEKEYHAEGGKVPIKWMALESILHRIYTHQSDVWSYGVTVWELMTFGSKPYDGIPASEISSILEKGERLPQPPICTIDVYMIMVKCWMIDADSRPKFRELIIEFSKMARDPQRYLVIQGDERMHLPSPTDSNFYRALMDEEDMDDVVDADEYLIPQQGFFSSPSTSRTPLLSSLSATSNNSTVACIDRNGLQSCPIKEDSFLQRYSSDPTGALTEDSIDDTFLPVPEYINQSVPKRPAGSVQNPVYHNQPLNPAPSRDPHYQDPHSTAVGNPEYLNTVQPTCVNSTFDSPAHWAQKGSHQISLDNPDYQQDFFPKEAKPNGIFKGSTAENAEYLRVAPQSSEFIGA
Ba/F3 (EGFR^del19/T790M/C797S) triple-mutant cells, sequence (P00533 with tags, fused parts or gaps DEL746-750/T790M/C797S, form open): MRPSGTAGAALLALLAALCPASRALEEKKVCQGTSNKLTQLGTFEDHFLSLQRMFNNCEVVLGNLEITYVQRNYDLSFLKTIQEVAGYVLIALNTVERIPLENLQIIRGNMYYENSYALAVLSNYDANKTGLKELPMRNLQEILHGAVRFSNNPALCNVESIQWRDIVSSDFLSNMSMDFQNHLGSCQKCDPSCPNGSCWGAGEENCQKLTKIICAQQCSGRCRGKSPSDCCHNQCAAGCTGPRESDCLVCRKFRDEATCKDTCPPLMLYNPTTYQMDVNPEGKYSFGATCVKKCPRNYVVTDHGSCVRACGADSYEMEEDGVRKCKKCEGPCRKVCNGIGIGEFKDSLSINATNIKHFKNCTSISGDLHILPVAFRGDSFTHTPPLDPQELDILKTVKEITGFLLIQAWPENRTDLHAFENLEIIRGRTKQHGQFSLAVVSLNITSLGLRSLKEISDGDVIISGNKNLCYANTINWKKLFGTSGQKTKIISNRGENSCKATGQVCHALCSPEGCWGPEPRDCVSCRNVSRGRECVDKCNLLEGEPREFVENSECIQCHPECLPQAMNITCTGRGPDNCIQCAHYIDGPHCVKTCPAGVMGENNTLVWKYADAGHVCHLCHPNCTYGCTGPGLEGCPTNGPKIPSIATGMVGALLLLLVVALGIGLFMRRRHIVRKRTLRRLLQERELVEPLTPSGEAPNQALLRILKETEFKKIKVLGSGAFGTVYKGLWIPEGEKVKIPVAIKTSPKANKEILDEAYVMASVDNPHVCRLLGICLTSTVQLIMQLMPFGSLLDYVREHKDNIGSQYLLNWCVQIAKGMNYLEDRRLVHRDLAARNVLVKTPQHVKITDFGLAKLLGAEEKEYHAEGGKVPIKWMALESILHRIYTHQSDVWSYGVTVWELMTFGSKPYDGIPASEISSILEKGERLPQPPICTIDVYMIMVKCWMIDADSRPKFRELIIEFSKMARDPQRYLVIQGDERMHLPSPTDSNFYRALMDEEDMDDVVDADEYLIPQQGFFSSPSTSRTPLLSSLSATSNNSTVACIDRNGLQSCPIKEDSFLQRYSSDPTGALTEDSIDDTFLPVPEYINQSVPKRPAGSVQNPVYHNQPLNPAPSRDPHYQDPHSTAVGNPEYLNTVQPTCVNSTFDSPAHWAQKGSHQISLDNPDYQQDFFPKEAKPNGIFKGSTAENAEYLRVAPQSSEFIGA
EGFR (L858R/T790M/C797S), sequence (P00533 25-1210 T790M/C797S/L858R): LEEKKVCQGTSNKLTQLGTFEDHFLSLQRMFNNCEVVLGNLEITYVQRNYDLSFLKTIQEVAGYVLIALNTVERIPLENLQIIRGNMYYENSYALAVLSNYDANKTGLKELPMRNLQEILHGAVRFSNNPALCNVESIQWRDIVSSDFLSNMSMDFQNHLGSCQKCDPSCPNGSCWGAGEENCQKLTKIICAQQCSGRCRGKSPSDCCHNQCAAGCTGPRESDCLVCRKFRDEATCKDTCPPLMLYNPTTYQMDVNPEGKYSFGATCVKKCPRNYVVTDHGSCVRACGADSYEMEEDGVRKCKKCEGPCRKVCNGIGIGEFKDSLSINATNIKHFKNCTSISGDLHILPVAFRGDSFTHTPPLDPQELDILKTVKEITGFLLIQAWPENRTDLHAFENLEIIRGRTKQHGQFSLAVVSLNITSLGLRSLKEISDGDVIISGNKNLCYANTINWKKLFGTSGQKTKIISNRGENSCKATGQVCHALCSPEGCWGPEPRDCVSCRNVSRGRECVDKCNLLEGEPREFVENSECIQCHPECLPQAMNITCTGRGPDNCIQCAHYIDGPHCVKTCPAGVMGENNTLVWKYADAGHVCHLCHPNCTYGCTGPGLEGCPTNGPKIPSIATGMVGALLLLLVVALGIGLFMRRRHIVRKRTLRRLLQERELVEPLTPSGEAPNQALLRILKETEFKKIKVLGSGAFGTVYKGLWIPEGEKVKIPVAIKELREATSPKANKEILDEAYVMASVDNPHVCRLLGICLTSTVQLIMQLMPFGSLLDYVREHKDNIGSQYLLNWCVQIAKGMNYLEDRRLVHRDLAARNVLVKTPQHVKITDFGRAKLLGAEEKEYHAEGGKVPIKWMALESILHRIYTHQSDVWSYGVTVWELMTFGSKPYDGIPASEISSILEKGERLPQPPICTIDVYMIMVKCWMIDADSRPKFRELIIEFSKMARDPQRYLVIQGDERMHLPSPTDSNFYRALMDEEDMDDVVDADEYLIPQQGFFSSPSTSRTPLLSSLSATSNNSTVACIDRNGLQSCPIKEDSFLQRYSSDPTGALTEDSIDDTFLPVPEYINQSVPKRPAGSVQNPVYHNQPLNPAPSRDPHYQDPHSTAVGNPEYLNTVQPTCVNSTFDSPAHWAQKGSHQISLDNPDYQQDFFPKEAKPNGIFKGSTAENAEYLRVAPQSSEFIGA

Question: How did the GI50 [1] turn out when `CN1CCN(C2CCN(c3ccc(Nc4nc(NC5CCOCC5)c(-c5cccc6[nH]ccc56)nc4C(N)=O)cc3)CC2)CC1` [compound 511, 6-(1H-indol-4-yl)-3-((4-(4-(4-methylpiperazin-1-yl)piperidin-1-yl)phenyl)amino)-5-((tetrahydro-2H-pyran-4-yl)amino)pyrazine-2-carboxamide] was run?
Answer: 9 nM

Question: And the “TGI (tumor growth inhibition)” value ([2]; 60 mg/kg)?
Answer: 87.41%

Question: And the “TGI (tumor growth inhibition)” value ([2]; 80 mg/kg)?
Answer: 93.17%

Question: And the “TGI (tumor growth inhibition)” value ([3]; 60 mg/kg)?
Answer: 99%

Question: What about the “TGI (tumor growth inhibition)” value ([3]; 80 mg/kg) of the same compound?
Answer: 104%

Question: What about the “EGFR (del19/T790M/C797S) inhibition (%) (0.3 nM compound)” value (“EGFR (del19/T790M/C797S) inhibition (%)” for short) [4] of the same compound?
Answer: +++ (+++ indicates an inhibition greater than 50%.)

Question: And the IC50 [5]?
Answer: 2.82 nM

Question: What about the IC50 [6] of the same compound?
Answer: 60 nM

Question: And the inhibition at 0.0003 µM [7]?
Answer: > 50%

Question: Which GI50 [1] does the source give for `CN1CCN(C2CCN(c3ccc(Nc4nc(NC5CC5)c(-c5cccc6[nH]ccc56)nc4C(N)=O)cc3)CC2)CC1` [compound 522] here?
Answer: 2 nM

Question: What about the “EGFR (del19/T790M/C797S) inhibition (%)” value [4] of the same compound?
Answer: +++ (+++ indicates an inhibition greater than 50%.)

Question: What about the IC50 [5] of the same compound?
Answer: 0.22 nM

Question: What about the IC50 [6] of the same compound?
Answer: 30 nM

Question: And the inhibition at 0.0003 µM [7]?
Answer: > 50%

Question: Which GI50 [1] does the source give for `CN1CCN(C2CCN(c3ccc(Nc4nc(N[C@H]5CC[C@H](O)CC5)c(-c5cccc6[nH]ccc56)nc4C(N)=O)cc3)CC2)CC1` [compound 526] here?
Answer: 5 nM

Question: What about the “EGFR (del19/T790M/C797S) inhibition (%)” value [4] of the same compound?
Answer: +++ (+++ indicates an inhibition greater than 50%.)

Question: And the IC50 [5]?
Answer: 0.33 nM

Question: What about the IC50 [6] of the same compound?
Answer: 100 nM

Question: And the inhibition at 0.0003 µM [7]?
Answer: > 50%

Question: How did the GI50 [1] turn out when `CN1CCN(C2CCN(c3ccc(Nc4nc(NC5CC6(COC6)C5)c(-c5cccc6[nH]ccc56)nc4C(N)=O)cc3)CC2)CC1` [compound 527] was run?
Answer: 4 nM

Question: What about the “EGFR (del19/T790M/C797S) inhibition (%)” value [4] of the same compound?
Answer: +++ (+++ indicates an inhibition greater than 50%.)

Question: And the IC50 [5]?
Answer: 1.7 nM

Question: What about the IC50 [6] of the same compound?
Answer: 100 nM

Question: And the inhibition at 0.0003 µM [7]?
Answer: > 50%
